Laboratory results as given in patent publication US20240245783A1, “METALLO-BETA-LACTAMASE INHIBITOR” (priority 2021, published 2024).

How the values were obtained:
[1] = tested on: E. coli clinical isolate expressing IMP-1; test: Meropenem MIC against E. coli clinical isolate expressing IMP-1 (Test Example 10); format: cell-based
Method: The enhancing effect of DTPA-ADCA on the susceptibility of E. coli clinical isolate expressing IMP-1 to a carbapenem antibacterial agent (meropenem) was evaluated by the following method. The E. coli clinical isolate was cultured overnight with shaking in LB medium. The bacterial solution was diluted to 1/1000 with LB medium, used as a test bacterial solution, and then seeded in a 96-well plate. Meropenem (Wako Pure Chemical Industries, Ltd.) was added to the bacterial solution, thereby performing two-step dilution from a maximum of 10 μg/ml. The bacteria were cultured in an incubator at 37° C. for one day, and growth at that time was measured by turbidity (655 nm). The meropenem concentration at which no bacterial growth had been observed was defined as the minimum inhibitory concentration.
The effect of DTPA-ADCA on the susceptibility of an E. coli clinical isolate to meropenem was evaluated by the following method. The E. coli clinical isolate was cultured overnight with shaking in LB medium. The bacterial solution was diluted to 1/1000 with LB medium, used as the test bacterial solution, and then seeded in a 96-well plate. Meropenem (Wako Pure Chemical Industries, Ltd.) was added to this bacterial solution in the range of 0.1 μg/ml to 0.005 μg/ml. Here, DTPA or DTPA-ADCA was used in combination therewith at a concentration of […], and the effect on bacterial growth was examined. The bacteria were cultured in an incubator at 37° C. for one day, and the growth at that time was measured by turbidity (655 nm).
FIG. 20 depicts the results. Multidrug-resistant E. coli was cultured with compounds having the indicated concentrations and the bacterial load was assessed by turbidity after 24 hours. […] Combined use of DTPA-ADCA (20 μM) reduced the minimum inhibitory concentration of meropenem to […] and enhanced the antibacterial activity by 100 times.

[2] = molecular target: T1, recombinant metallo-β-lactamase (recombinant IMP-1) (Serratia marcescens, UniProt P52699); test: Inhibition of meropenem degradation by recombinant IMP-1 (Test Example 1); format: biochemical; settings: compound at 1, 5, and 10 μM; 100 μM meropenem; 1 hour at 37° C.; tandem mass spectrometry
T1 construct: made in house; host or cells: E. coli BL21(DE3), vector pET29a
Method: Based on the description of NON PATENT LITERATURE 5, a recombinant metallo-β-lactamase (recombinant IMP-1) was prepared. “NG_049172” of Database: RefSeq as the IMP-1 gene was incorporated into vector pET29a (Novagen), and then expressed in E. coli BL21(DE3) (Invitrogen).
Recombinant IMP-1 was dissolved in a 50 mM sodium phosphate buffer (pH 7.6) at a concentration of 0.25 μg/ml. Furthermore, zinc chloride was added to the solution in such a manner that the concentration was 0.1 μM. The resultant in this state was subjected to preincubation at 37° C. for 10 minutes. […] After 1 hour of incubation at 37° C. residual meropenem was quantified by tandem mass spectrometry. Meropenem was quantified by a multiple reaction monitoring method. […]
Reverse phase column: YMC-Triat C18 Plus column (2.1×50 mm); column temperature: 45° C.; mobile phase (2 liquids): mobile phase A (0.1% formic acid aqueous solution), mobile phase B (acetonitrile); gradient: increase from 1% B to 80% B for 10 minutes, keep it at 80% B for 0.5 minutes, and then return it to 1% B over 1 minute. […] Detection: multiple reaction monitoring, parent ion at 384.2, child ion at 68.1; measured in a positive ion mode.
FIG. 4 depicts a graph showing the results of quantifying the peak area of meropenem detected in FIG. 3. The peak of meropenem alone is expressed as 100%.

[3] = tested on: IMP-1-expressing E. coli; test: Susceptibility of IMP-1-expressing E. coli to meropenem (Test Example 5); format: cell-based; settings: compound at 25 μM; meropenem diluted from 2 μM; turbidity 655 nm after one day
Method: Based on the description of NON PATENT LITERATURE 5, IMP-1-expressing E. coli was prepared.
The effects of DTPA-cefalexin and NOTA-cefalexin on the susceptibility of IMP-1-expressing E. coli to a carbapenem antibacterial agent (meropenem) were evaluated by the following method. The IMP-1-expressing E. coli was cultured overnight with shaking in LB medium containing 100 μg/ml ampicillin. The bacterial solution was diluted to 1/200 with LB medium, used as a test bacterial solution, and then seeded in a 96-well plate. Meropenem (Wako Pure Chemical Industries, Ltd.) was added to the bacterial solution, thereby performing two-step dilution from a maximum of 2 μM. The bacteria were cultured in an incubator at 37° C. for one day, and the growth at that time was measured by turbidity (655 nm). FIGS. 8 and 9 depict the results.
FIG. 8 depicts the susceptibility to meropenem when DTPA-cefalexin was added at 25 μM, or EDTA or DTPA was added at 25 μM. FIG. 9 depicts susceptibility to meropenem when NOTA-cefalexin was added at 25 μM. Those denoted as “control” in the figure show the results of adding only meropenem.

[4] = tested on: IMP-1-expressing Klebsiella pneumoniae; test: Survival of Leukopenia mice infected with IMP-1-expressing Klebsiella pneumoniae (Test Example 6); format: in vivo; settings: meropenem 10 mg/kg and compound 1 50 mg/kg subcutaneously 30 min after infection; 48 hours; Leukopenia ddY mice
Method: DTPA-conjugated cefalexin (compound 1)'s effect of enhancing the drug susceptibility of pathogenic bacteria was examined by an in vivo experiment using bacteria-infected mice. To prepare a compromised Leukopenia mouse model, 0.1 mL of cyclophosphamide monohydrate (Sigma-Aldrich) prepared with PBS was administered intraperitoneally to 4-week-old male ddY mice (Japan SLC) at 250 mg/kg at 4 days before infection. IMP-1-expressing Klebsiella pneumoniae used herein was a clinical isolate provided by Kumamoto University Hospital. The bacteria were cultured overnight with shaking in LB medium at 37° C., then diluted 50-fold with LB medium, and further cultured with shaking, so that the turbidity (600 nm) was 1.5 or higher. The bacteria were centrifuged to remove the medium, washed twice with PBS, and then diluted with PBS to 5×10^5 CFU/mL. In the mouse infection experiment, each Leukopenia mouse was infected with 0.1 mL (5×10^4 CFU) of IMP-1-expressing Klebsiella pneumoniae by intraperitoneal injection. Thirty minutes after infection, 0.1 mL of a mixed solution containing meropenem (Wako Pure Chemical Industries, Ltd.) and compound 1 (DTPA-CEF) was subcutaneously administered to each mouse of a treatment mouse group at 10 mg/kg and 50 mg/kg, respectively. […] Forty-eight hours after infection, mice were assessed for viability. […]

[5] = combined use of DTPA-ADCA (20 μM)

T1 sequence (P52699 19-246 limits assumed): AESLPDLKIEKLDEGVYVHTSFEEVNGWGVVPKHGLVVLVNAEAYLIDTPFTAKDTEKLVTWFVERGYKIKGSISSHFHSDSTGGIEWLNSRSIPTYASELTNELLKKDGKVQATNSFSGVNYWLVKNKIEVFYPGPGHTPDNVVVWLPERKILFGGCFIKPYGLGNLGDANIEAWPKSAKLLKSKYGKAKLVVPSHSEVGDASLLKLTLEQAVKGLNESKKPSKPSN

SMILES: O=C(O)CN(CCN(CC(=O)O)CC(=O)O)CCN(CC(=O)O)CC(=O)O [DTPA, reference compound]
- effect on the minimum inhibitory concentration of meropenem ([1]; DTPA used in combination with meropenem): had no such effect

SMILES: CC1=C(C(=O)O)N2C(=O)[C@@H](NC(=O)C(NC(=O)CN(CCN(CCN(CC(=O)O)CC(=O)O)CC(=O)O)CC(=O)O)c3ccccc3)[C@H]2SC1 (stereo partly shown) [compound 1, DTPA-conjugated cefalexin]
- inhibition of meropenem degradation by IMP-1 (residual meropenem) [2]: inhibited the degradation of meropenem
- effect on susceptibility of IMP-1-expressing E. coli to meropenem [3]: metallo-β-lactamase-expressing bacteria are killed by the effect of the carbapenem antibacterial agent
- percent survival [4]: 50%

SMILES: CC1=C(C(=O)O)N2C(=O)[C@@H](NC(=O)CN(CCN(CCN(CC(=O)O)CC(=O)O)CC(=O)O)CC(=O)O)[C@H]2SC1 [compound 6, DTPA-conjugated ADCA]
- enhancement of the antibacterial activity of meropenem [1, 5]: 100 times
- minimum inhibitory concentration of meropenem [1, 5]: 10 µg/mL

SMILES: CC1=C(C(=O)O)N2C(=O)[C@@H](NC(=O)[C@H](NC(=O)CN3CCN(CC(=O)O)CCN(CC(=O)O)CC3)c3ccccc3)[C@H]2SC1 [compound 7, NOTA-Conjugated Cefalexin]
- effect on susceptibility of IMP-1-expressing E. coli to meropenem [3]: metallo-β-lactamase-expressing bacteria are killed by the effect of the carbapenem antibacterial agent
